Several values for one entry are separate records, joined by “and”; a condition that tells them apart may be missing. Equal entries are not always repeated. Where two headings read alike, the source gives them in different places.
How the values were obtained:
ALK^WT = ALK^WT (Homo sapiens, UniProt Q9UM73); assay: HTRF kinase activity assay; format: biochemical
Procedure: (§1) After the kinase proteins, Ulight-peptide species, adenosine triphosphate (ATP), and compound were mixed, the reaction was carried out at room temperature. Reactions were quenched by the addition of ethylene diamine tetraacetic acid buffer containing Eu antibody and XL665-streptavidin at the indicated time points. Plate reading was performed using an Envision (Perkin Elmer, MA, USA) multifunctional microplate reader.

EGFR wild type = EGFR wild type (Homo sapiens, UniProt P00533); assay: Z'-LYTE kinase selectivity; settings: read-out: IC50 EGFR wild type
MRP2 = molecular target: T1, MRP2 (Homo sapiens, UniProt Q92887); assay: MRP2 inhibitor investigation; format: in vitro ADME
T1 construct: host or cells: membrane vesicles ('Membrane capsule'), MRP2 versus NC control, with ATP or AMP

CYP1A2 = assay: Hepatic enzyme induction in human hepatocytes; format: in vitro ADME; settings: 10 µM, human hepatocytes from three donors
Procedure: Human hepatocytes derived from three donors were used for evaluating for hepatic enzyme inducing activity. […] The gene expression related to cytochrome P450 isoenzyme CYP3A4 in hepatocytes of one of the three donors increased with iruplinalkib 1 µM.

MATE2K = molecular target: T2, MATE2K (Homo sapiens, UniProt Q86VL8); format: in vitro ADME
T2 construct: No ESHDG27; host or cells: HEK293

AUR2 = AUR2 (Homo sapiens, UniProt O14965); assay: Z'-LYTE kinase selectivity; format: biochemical
CYP2B6 = assay: Hepatic enzyme induction in human hepatocytes (gene expression); format: in vitro ADME
BSEP = molecular target: T3, BSEP (Homo sapiens, UniProt O95342); assay: BSEP inhibitor investigation; format: in vitro ADME
T3 construct: host or cells: membrane vesicles ('Membrane capsule'), BSEP versus NC control, with ATP or AMP

P-gp/BCRP/MRP2 = assay: ABC efflux transporter substrate investigation on Caco-2 cells; settings: for efflux ratio at 0.5 µM / efflux ratio at 5 µM / efflux ratio at 50 µM: human
ALK^C1156Y = ALK^C1156Y (Homo sapiens, UniProt Q9UM73, C1156Y); assay: HTRF kinase activity assay; format: biochemical
Procedure: as §1

EGFR^L858R/T790M = EGFR^L858R/T790M (Homo sapiens, UniProt P00533, L858R/T790M); assay: HTRF kinase activity assay
Procedure: as §1

BCRP = molecular target: T4, BCRP (Homo sapiens, UniProt Q9UNQ0); assay: ABC efflux transporter inhibitor test on Caco-2 cells (E3S efflux)
T4 sequence (Q9UNQ0 1-655): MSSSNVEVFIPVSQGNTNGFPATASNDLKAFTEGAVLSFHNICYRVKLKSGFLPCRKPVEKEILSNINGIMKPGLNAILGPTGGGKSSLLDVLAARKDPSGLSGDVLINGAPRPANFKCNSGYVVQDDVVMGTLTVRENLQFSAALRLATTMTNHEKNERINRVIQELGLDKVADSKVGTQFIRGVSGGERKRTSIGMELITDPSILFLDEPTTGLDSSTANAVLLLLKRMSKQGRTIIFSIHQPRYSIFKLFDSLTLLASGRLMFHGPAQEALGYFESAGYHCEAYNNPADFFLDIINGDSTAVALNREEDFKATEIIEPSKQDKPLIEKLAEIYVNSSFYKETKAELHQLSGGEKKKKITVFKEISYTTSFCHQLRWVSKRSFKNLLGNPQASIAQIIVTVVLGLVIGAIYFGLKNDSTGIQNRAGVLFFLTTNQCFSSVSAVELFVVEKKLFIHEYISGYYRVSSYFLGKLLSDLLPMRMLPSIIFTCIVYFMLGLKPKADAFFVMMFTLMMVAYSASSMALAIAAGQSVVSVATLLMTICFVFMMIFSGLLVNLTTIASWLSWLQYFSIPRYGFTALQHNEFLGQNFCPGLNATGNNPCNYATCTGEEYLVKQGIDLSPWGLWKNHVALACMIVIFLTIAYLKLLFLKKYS

MATE1 = molecular target: T5, MATE1 (Homo sapiens, UniProt Q96FL8)
T5 sequence (Q96FL8 1-570): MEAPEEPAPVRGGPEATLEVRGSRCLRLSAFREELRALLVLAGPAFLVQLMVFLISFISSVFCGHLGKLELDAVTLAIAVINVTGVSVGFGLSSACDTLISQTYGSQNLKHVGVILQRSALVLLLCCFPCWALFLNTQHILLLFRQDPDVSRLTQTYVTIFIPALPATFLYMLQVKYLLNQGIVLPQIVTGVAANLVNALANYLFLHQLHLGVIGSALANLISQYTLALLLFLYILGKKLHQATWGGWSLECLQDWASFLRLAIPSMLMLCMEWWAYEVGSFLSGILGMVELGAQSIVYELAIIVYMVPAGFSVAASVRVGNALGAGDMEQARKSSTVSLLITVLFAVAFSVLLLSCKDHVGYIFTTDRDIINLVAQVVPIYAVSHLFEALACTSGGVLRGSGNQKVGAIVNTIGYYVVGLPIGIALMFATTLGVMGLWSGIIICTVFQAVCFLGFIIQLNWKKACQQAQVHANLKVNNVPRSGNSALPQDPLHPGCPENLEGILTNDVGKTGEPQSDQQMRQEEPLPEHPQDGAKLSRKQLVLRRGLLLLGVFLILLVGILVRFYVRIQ
Procedure: Using a stably transfected cell line of HEK293 expressing transporter OATP1B1, OATP1B3 or OCT2, formal substrate investigation tests were performed for three concentration gradients (30 µM, 3 µM, 0.3 µM) of iruplinalkib.

[1] = human, Caco-2 cells, probe E3S (10 µM)

T3 sequence (O95342 whole entry): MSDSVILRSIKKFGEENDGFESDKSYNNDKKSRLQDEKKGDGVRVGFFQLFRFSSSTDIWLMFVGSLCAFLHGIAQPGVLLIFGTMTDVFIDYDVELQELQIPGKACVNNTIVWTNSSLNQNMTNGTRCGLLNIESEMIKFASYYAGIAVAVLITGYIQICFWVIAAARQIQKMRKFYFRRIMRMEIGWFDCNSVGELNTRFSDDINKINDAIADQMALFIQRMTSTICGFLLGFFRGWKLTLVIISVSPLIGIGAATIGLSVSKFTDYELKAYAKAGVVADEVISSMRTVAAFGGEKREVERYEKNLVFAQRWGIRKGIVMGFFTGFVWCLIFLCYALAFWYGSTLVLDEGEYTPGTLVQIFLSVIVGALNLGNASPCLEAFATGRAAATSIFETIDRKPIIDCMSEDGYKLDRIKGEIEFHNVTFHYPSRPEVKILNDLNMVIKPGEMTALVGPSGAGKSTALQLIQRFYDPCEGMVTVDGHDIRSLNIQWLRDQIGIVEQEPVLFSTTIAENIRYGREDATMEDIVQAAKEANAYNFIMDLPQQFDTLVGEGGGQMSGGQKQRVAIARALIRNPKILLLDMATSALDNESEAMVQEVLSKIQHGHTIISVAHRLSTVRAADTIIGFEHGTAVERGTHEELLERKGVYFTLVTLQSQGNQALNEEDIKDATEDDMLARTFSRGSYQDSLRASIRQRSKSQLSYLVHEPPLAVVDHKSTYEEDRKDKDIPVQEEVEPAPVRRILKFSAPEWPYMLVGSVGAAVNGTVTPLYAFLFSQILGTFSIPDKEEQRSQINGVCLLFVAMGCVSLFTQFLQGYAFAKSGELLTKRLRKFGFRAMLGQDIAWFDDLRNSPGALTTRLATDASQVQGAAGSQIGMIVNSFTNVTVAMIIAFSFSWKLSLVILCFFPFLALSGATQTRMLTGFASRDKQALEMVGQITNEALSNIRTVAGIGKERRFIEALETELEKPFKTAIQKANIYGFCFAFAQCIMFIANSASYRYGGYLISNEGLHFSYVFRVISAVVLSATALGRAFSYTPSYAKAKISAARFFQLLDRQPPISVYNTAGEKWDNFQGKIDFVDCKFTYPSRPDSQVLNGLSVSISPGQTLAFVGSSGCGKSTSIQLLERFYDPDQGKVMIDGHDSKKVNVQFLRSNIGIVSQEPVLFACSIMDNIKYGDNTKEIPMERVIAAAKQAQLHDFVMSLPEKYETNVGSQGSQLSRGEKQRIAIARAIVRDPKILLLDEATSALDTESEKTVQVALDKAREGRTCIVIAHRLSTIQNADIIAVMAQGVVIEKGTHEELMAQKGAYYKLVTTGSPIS
T1 sequence (Q92887 whole entry): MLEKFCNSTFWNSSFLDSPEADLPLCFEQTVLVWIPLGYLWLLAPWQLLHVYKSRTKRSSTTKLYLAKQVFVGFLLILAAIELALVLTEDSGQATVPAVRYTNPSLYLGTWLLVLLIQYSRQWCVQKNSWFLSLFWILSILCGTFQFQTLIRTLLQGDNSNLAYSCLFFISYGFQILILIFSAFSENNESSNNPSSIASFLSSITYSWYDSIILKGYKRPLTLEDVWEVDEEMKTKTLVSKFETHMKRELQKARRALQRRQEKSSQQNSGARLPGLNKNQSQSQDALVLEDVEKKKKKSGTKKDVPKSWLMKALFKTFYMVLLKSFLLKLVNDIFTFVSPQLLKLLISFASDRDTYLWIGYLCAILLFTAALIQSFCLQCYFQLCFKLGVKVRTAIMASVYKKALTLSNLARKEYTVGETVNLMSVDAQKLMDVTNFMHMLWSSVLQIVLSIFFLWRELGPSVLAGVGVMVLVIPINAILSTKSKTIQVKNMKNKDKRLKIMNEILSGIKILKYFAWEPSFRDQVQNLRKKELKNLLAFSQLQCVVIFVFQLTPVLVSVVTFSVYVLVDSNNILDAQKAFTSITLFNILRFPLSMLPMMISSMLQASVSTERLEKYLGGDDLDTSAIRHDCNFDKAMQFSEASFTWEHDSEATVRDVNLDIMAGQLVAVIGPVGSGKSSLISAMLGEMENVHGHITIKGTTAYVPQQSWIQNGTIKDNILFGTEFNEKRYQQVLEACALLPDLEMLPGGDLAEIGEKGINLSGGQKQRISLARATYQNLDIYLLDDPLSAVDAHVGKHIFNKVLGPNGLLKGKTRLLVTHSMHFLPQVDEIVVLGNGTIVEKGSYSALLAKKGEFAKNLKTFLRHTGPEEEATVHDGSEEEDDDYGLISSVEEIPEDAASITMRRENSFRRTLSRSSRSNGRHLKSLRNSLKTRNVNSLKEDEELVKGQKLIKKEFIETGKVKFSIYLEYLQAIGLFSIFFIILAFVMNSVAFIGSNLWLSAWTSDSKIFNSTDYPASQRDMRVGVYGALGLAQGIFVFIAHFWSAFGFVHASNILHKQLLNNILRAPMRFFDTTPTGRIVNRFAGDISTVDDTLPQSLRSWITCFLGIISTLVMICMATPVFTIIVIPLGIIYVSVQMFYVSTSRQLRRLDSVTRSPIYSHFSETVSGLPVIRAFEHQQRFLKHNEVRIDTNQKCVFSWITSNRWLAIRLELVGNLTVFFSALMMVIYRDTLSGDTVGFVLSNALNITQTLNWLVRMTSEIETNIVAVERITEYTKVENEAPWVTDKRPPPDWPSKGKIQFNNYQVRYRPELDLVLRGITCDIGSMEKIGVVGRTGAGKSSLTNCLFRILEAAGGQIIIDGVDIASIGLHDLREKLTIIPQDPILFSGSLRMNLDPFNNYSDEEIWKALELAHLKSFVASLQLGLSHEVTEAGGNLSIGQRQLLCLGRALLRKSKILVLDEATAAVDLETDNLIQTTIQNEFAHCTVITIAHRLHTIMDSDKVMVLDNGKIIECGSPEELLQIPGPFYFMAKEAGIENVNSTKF
ALK^WT, sequence (Q9UM73 19-1620): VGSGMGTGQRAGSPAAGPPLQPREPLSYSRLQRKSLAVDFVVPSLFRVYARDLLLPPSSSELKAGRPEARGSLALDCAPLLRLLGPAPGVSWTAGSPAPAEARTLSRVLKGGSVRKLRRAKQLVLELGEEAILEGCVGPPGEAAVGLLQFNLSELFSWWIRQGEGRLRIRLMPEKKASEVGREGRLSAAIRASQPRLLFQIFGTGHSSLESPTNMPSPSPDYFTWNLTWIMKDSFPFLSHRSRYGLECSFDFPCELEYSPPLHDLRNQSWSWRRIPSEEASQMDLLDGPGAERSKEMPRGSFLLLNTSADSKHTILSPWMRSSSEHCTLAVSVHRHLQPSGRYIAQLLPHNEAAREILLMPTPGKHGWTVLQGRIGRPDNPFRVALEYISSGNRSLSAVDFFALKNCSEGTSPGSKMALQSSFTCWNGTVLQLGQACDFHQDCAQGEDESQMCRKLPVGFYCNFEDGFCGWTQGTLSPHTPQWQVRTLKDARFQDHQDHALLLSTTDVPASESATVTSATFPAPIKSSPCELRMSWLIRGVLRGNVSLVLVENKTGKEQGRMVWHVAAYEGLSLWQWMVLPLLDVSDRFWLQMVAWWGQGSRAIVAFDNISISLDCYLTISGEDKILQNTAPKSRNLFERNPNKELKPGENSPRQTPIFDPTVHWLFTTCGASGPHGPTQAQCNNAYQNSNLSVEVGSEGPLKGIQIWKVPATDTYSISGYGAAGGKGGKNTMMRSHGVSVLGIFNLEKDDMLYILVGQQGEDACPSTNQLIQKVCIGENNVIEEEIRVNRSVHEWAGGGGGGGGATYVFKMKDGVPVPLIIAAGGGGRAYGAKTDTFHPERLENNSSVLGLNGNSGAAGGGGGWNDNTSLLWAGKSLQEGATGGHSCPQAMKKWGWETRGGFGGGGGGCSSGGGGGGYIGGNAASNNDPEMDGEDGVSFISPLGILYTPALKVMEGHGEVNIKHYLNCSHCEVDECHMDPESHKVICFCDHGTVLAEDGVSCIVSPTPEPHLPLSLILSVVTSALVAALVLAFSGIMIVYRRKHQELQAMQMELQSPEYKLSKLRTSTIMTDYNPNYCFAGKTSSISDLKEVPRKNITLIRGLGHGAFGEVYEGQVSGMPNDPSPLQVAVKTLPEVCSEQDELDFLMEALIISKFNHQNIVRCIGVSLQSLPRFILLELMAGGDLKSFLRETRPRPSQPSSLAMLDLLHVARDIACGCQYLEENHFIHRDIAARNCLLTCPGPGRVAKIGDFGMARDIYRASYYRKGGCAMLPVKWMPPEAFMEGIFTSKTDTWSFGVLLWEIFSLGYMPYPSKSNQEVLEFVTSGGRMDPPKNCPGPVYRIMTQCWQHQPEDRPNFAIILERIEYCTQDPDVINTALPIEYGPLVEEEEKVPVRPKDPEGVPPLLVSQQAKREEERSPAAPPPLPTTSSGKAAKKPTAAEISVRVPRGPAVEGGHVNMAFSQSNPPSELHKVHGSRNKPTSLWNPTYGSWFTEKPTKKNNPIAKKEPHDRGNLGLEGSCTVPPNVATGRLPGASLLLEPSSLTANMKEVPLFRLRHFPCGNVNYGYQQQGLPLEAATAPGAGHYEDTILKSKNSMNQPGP
ALK^C1156Y, sequence (Q9UM73 19-1620 C1156Y): as the sequence (Q9UM73 19-1620) above, with C1138Y counted along it
AUR2, sequence (O14965 whole entry): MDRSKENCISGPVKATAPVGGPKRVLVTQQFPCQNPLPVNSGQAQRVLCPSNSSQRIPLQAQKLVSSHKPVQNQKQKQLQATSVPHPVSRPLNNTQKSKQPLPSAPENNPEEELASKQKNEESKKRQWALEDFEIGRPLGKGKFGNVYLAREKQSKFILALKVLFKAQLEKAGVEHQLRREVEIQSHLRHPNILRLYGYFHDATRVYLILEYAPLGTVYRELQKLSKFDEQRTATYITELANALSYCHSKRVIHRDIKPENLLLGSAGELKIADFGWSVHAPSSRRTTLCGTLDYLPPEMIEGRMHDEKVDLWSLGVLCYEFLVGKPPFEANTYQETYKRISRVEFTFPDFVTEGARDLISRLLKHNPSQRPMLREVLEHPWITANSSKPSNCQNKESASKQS

## COc1cc(N2CCC3(CCN(C)CC3)CC2)ccc1Nc1ncc(Cl)c(Nc2ccccc2P(C)(C)=O)n1 [Iruplinalkib]
ALK^WT
  IC50: 5.38 nM and < 10 nM
EGFR wild type
  IC50: 35 nM
MRP2
  efflux inhibitor of MRP2: not an efflux inhibitor
MRP2; probe CDCF 5 μM, MRP2, substrate CDCF 5 μM, inhibitor 0.1 μM, read-out: Inhibition rate
  inhibition at 0.1 μM: -7.3%
MRP2; probe CDCF 5 μM, MRP2, substrate CDCF 5 μM, inhibitor 0.3 μM, read-out: Inhibition rate
  inhibition at 0.3 μM: -8.8%
MRP2; probe CDCF 5 μM, MRP2, substrate CDCF 5 μM, inhibitor 1 μM, read-out: Inhibition rate
  inhibition at 1 μM: -4.5%
MRP2; probe CDCF 5 μM, MRP2, substrate CDCF 5 μM, inhibitor 3 μM, read-out: Inhibition rate
  inhibition at 3 μM: -4.2%
MRP2; probe CDCF, MRP2, substrate CDCF 5 μM, inhibitor 10 μM, read-out: Inhibition rate
  inhibition at 10 µM: -3.8%
MRP2; probe CDCF, MRP2, substrate CDCF 5 μM, inhibitor 30 μM, read-out: Inhibition rate
  inhibition at 30 μM: -2.8%
MRP2; probe CDCF, MRP2, substrate CDCF 5 μM, inhibitor 100 μM, read-out: Inhibition rate
  inhibition at 100 μM: -7.3%
CYP1A2
  inducer of CYP1A2: not an inducer
MATE2K
  inhibition of MATE2K: stronger inhibitor
AUR2
  IC50: 1080 ± 106 nM
CYP2B6; 10 µM, human hepatocytes from three donors
  inducer of CYP2B6: not an inducer
CYP2B6; donor 1, 0.1 µM
  CYP2B6 gene expression, folds of expression: 0.798 fold
CYP2B6; donor 1, 1 µM
  CYP2B6 gene expression, folds of expression: 1.36 fold
CYP2B6; donor 1, 10 µM
  CYP2B6 gene expression, folds of expression: 2.62 fold
CYP2B6; donor 2, 0.1 µM
  CYP2B6 gene expression, folds of expression: 0.862 fold
CYP2B6; donor 2, 1 µM
  CYP2B6 gene expression, folds of expression: 0.926 fold
CYP2B6; donor 2, 10 µM
  CYP2B6 gene expression, folds of expression: 4.02 fold
CYP2B6; donor 3, 0.1 µM
  CYP2B6 gene expression, folds of expression: 0.526 fold
CYP2B6; donor 3, 1 µM
  CYP2B6 gene expression, folds of expression: 1.13 fold
CYP2B6; donor 3, 10 µM
  CYP2B6 gene expression, folds of expression: 0.602 fold
BSEP
  efflux inhibitor of BSEP: not an efflux inhibitor
BSEP; BSEP membrane capsules (membrane vesicles), ATP vs AMP, probe TCA, BSEP, substrate TCA 10 μM, inhibitor 0.1 μM, read-out: Inhibition rate
  inhibition at 0.1 μM: -25.4%
BSEP; BSEP membrane capsules (membrane vesicles), ATP vs AMP, probe TCA, BSEP, substrate TCA 10 μM, inhibitor 0.3 μM, read-out: Inhibition rate
  inhibition at 0.3 μM: -10.7%
BSEP; BSEP membrane capsules (membrane vesicles), ATP vs AMP, probe TCA, BSEP, substrate TCA 10 μM, inhibitor 1 μM, read-out: Inhibition rate
  inhibition at 1 μM: -26.7%
BSEP; BSEP membrane capsules (membrane vesicles), ATP vs AMP, probe TCA, BSEP, substrate TCA 10 μM, inhibitor 3 μM, read-out: Inhibition rate
  inhibition at 3 μM: -11.8%
BSEP; BSEP membrane capsules (membrane vesicles), ATP vs AMP, probe TCA, BSEP, substrate TCA 10 μM, inhibitor 10 μM, read-out: Inhibition rate
  inhibition at 10 µM: -10.5%
BSEP; BSEP membrane capsules (membrane vesicles), ATP vs AMP, probe TCA, BSEP, substrate TCA 10 μM, inhibitor 30 μM, read-out: Inhibition rate
  inhibition at 30 μM: -0.09%
BSEP; BSEP membrane capsules (membrane vesicles), ATP vs AMP, probe TCA, BSEP, substrate TCA 10 μM, inhibitor 100 μM, read-out: Inhibition rate
  inhibition at 100 μM: 26.3%
P-gp/BCRP/MRP2; Caco-2
  substrate of BCRP: not for breast cancerresistance protein (BCRP)
  substrate of P-gp: transported substrate
  efflux ratio at 0.5 µM: 20.3
  efflux ratio at 5 µM: 84.2
  efflux ratio at 50 µM: 8.02
P-gp/BCRP/MRP2; Iruplinalkib 0.5 µM as substrate, with Ko143 10 µM
  Exhaust Ratio Mean: 20.95
P-gp/BCRP/MRP2; Iruplinalkib 5 µM as substrate, with Ko143 10 µM
  Exhaust Ratio Mean: 26.14
P-gp/BCRP/MRP2; Iruplinalkib 5 µM as substrate, with Verapamil 50 µM
  Exhaust Ratio Mean: 2.626
P-gp/BCRP/MRP2; Caco-2, with Elacridar 10 µM
  efflux ratio at 0.5 µM: 2.81
  efflux ratio at 5 µM: 0.605
  efflux ratio at 50 µM: 0.614
P-gp/BCRP/MRP2; Caco-2, with Ko143 10 µM
  efflux ratio at 50 µM: 9.89
P-gp/BCRP/MRP2; Caco-2, with Verapamil 50 µM
  efflux ratio at 0.5 µM: 3.46
  efflux ratio at 50 µM: 1.95
ALK^C1156Y
  IC50: 9.28 nM and < 10 nM
EGFR^L858R/T790M
  IC50: 16.7 ± 8.11 nM
BCRP; Caco-2
  BCRP inhibitor: BCRP inhibitor
BCRP; [1]
  inhibition at 0.1 μM: -11.1%
  inhibition at 0.3 μM: 37.7%
  inhibition at 1 μM: 8.3%
  inhibition at 3 μM: 50.9%
  inhibition at 10 µM: 97.2%
  inhibition at 30 μM: 26.3%
MATE1; 0.5 μM
  Uptake transport activity, Net value: 532.9 pmol/mg protein/min
MATE1; 5 μM
  Uptake transport activity, Net value: 55.01 pmol/mg protein/min
MATE1; 50 μM
  Uptake transport activity, Net value: -114.5 pmol/mg protein/min

— publication PMC10140010 (Investigational New Drugs, 2023)
